Tests used:
[1] = Terminal phase volume of distribution in CD1 mouse; format: ADME, organism-based; conditions: in vivo, read-out: Vbeta
[2] = Clearance in CD1 mouse; format: ADME, organism-based; conditions: in vivo
[3] = AUC in CD1 mouse brain at 30 mg/kg, po; format: ADME, organism-based; parameters: dose 30 mg/kg, route oral
[4] = Half life in iv dosed CD1 mouse; format: ADME, organism-based; conditions: in vivo
[5] = Cmax in CD1 mouse at 10 mg/kg, po; format: ADME, organism-based; parameters: dose 10 mg/kg, route oral; conditions: in vivo
[6] = AUC in CD1 mouse plasma at 30 mg/kg, po; format: ADME, organism-based; parameters: dose 30 mg/kg, route oral
[7] = Oral bioavailability in CD1 mouse at 10 mg/kg; format: ADME, organism-based; conditions: in vivo
[8] = AUC in CD1 mouse at 10 mg/kg, po; format: ADME, organism-based; parameters: dose 10 mg/kg, route oral; conditions: plasma
[9] = Ratio of drug level in plasma to brain of CD1 mouse
[10] = AUC in Sprague-Dawley rat at 5 mg/kg, po; format: ADME, organism-based; parameters: dose 5 mg/kg, route oral; conditions: plasma
[11] = Oral bioavailability in Beagle dog at […]; format: ADME, organism-based, Canis lupus familiaris; conditions: in vivo
[12] = Cmax in Beagle dog at […], po; format: ADME, organism-based, Canis lupus familiaris; parameters: dose 2.5 mg/kg, route oral; conditions: in vivo
[13] = Clearance in Sprague-Dawley rat; format: ADME, organism-based; conditions: in vivo
[14] = Oral bioavailability in cynomolgus monkey at […]; format: ADME, organism-based, Macaca fascicularis; conditions: in vivo
[15] = AUC in cynomolgus monkey at […], po; format: ADME, organism-based, Macaca fascicularis; parameters: dose 2.5 mg/kg, route oral; conditions: plasma
[16] = Terminal phase volume of distribution in Sprague-Dawley rat; format: ADME, organism-based; conditions: in vivo, read-out: Vbeta
[17] = Cmax in Sprague-Dawley rat at 5 mg/kg, po; format: ADME, organism-based; parameters: dose 5 mg/kg, route oral; conditions: in vivo
[18] = AUC in Beagle dog at […], po; format: ADME, organism-based, Canis lupus familiaris; parameters: dose 2.5 mg/kg, route oral; conditions: plasma
[19] = Half life in iv dosed cynomolgus monkey; format: ADME, organism-based, Macaca fascicularis; conditions: in vivo
[20] = Half life in iv dosed Sprague-Dawley rat; format: ADME, organism-based; conditions: in vivo
[21] = Clearance in cynomolgus monkey; format: ADME, organism-based, Macaca fascicularis; conditions: in vivo
[22] = Terminal phase volume of distribution in Beagle dog; format: ADME, organism-based, Canis lupus familiaris; conditions: in vivo, read-out: Vbeta
[23] = Terminal phase volume of distribution in cynomolgus monkey; format: ADME, organism-based, Macaca fascicularis; conditions: in vivo, read-out: Vbeta
[24] = Clearance in Beagle dog; format: ADME, organism-based, Canis lupus familiaris; conditions: in vivo
[25] = Half life in iv dosed Beagle dog; format: ADME, organism-based, Canis lupus familiaris; conditions: in vivo
[26] = Oral bioavailability in Sprague-Dawley rat at 5 mg/kg; format: ADME, organism-based; conditions: in vivo
[27] = Cmax in cynomolgus monkey at […], po; format: ADME, organism-based, Macaca fascicularis; parameters: dose 2.5 mg/kg, route oral; conditions: in vivo
[28] = Drug level in mouse B16F10 transplanted TMZ-treated C57BL/6 mouse plasma […] at 25 mg/kg/day, po administered from day 6 to 10 post transplantation measured after 6 hrs of final dose in presence of TMZ; format: ADME, organism-based, C57BL6; parameters: route oral
[29] = Drug level in mouse B16F10 transplanted C57BL/6 mouse plasma at 25 mg/kg/day, po administered from day 6 to 10 post transplantation measured after 6 hrs of final dose; format: ADME, organism-based, C57BL6; parameters: route oral
[30] = Drug level in mouse B16F10 cells transplanted in C57BL/6 mouse at 25 mg/kg/day, po administered from day 6 to 10 post transplantation measured after 6 hrs of final dose; format: ADME, organism-based, C57BL6, B16-F10; parameters: route oral; conditions: B16F10 tumour (neoplasm)

Row | Vd [1] [L/kg] | clearance [2] [mL/min/kg] | AUC [3] [ng·h/mL] | half-life [4] [h] | Cmax [5] [ng/mL] | AUC [6] [ng·h/mL] | bioavailability [7] [%] | AUC [8] [ng·h/mL] | Kp [9] | AUC [10] [ng·h/mL] | bioavailability [11] [%] | Cmax [12] [ng/mL] | clearance [13] [mL/min/kg] | bioavailability [14] [%] | AUC [15] [ng·h/mL] | Vd [16] [L/kg] | Cmax [17] [ng/mL] | AUC [18] [ng·h/mL] | half-life [19] [h] | half-life [20] [h] | Compound | further results
1 | 15 | 122 | 6300 | 1.4 | 300 | 5800 | 100 | 1600 | – | – | – | – | – | – | – | – | – | – | – | – | NC(=O)c1cccc2[nH]c(-c3ccc([C@H]4CCCCN4)cc3F)nc12 | –
2 | 4.6 | 60 | 1800 | 0.9 | 500 | 4200 | 36 | 1000 | 2 | – | – | – | – | – | – | – | – | – | – | – | NC(=O)c1cccc2[nH]c(-c3ccc([C@H]4CCCN4)cc3F)nc12 | –
3 | 6.6 | 60 | 9100 | 1.3 | 500 | 9900 | 63 | 1700 | – | 1800 | 39 | 100 | 38.3 | 61 | 750 | 14 | 200 | 300 | 5 | 4.5 | NC(=O)c1cccc2[nH]c(-c3ccc([C@@H]4CCCCN4)cc3F)nc12 | clearance [21]: 36.7 mL/min/kg; Vd [22]: 9.3 L/kg; Vd [23]: 15 L/kg; clearance [24]: 56.7 mL/min/kg; half-life [25]: 2 h; bioavailability [26]: 80%; Cmax [27]: 100 ng/mL
4 | 3.3 | 48.3 | 4200 | 0.8 | 600 | 9800 | 36 | 1200 | 2 | 1700 | 72 | 500 | 28.3 | 34 | 200 | 4.1 | 300 | 1100 | 1.8 | 1.9 | NC(=O)c1cccc2[nH]c(-c3ccc([C@@H]4CCCN4)cc3F)nc12 | concentration at 6 h [28]: 380 ng/mL; concentration at 6 h [29]: 220 ng/mL; clearance [21]: 68.3 mL/min/kg; Vd [22]: 3.6 L/kg; Vd [23]: 9.2 L/kg; clearance [24]: 28.3 mL/min/kg; half-life [25]: 1.7 h; bioavailability [26]: 55%; Cmax [27]: 30 ng/mL; concentration at 6 h [30]: 17200 ng/mL

Reference: ChEMBL document CHEMBL1156198 (J Med Chem, 2010)
